Source: patent US9957254B2, “Cyclohexen-1-yl-pyridin-2-yl-1h-pyrazole-4-carboxylic acid derivatives and the use thereof as soluble guanylate cyclase activators” (Novartis AG, priority 2014, dated 2018)
pEC50: −log10 of the molar value.

Biological target: T1, soluble guanylate cyclase (Homo sapiens, UniProt Q02153)
T1 construct: expressed in transfected cells
Assay: CHO cellular assay (cGMP production, Cisbio cGMP HTRF)
Format: cell-based
Details: CHO K1 cells overexpressing human GUCYA3/GUCYB3 (clone 8E10), 1 mM IBMX, 20 uM ODQ, 1 h room temperature, listed 0.5 nM means actual EC50 ≤0.5 nM (quantification limit)
Description: Chinese hamster ovary (CHO) cells overexpressing soluble guanylate cyclase were generated to test the effect of sGC activators in a cellular context. Human cDNAs for GUCYA3 (RefSeq: NM_000856.3) and GUCYB3 (RefSeq: NM_000857.1) were amplified by PCR from a HUVEC (Human Umbilical Vein Endothelial Cells) cDNA library and cloned into mammalian expression vectors. CHO K1 cells (ATCC CCL-61) were transfected using Lipofectamine 2000 following manufacturer's instructions and stably expressing clones were identified by antibiotic selection. CHO GUCY clone 8E10 was used for subsequent experiments.
Cells were seeded at a density of 3000 cells/well in white 384-well proxyplates (Perkin Elmer) and incubated overnight, then the medium was removed and cells were washed with assay buffer (HBSS, 0.1% BSA, 1 mM IBMX, 20 uM ODQ). sGC activators were serially diluted in DMSO, then diluted in assay buffer prior to adding to cells (10 ul/well, final DMSO concentration 0.5%). Cells were incubated with compounds for 1 h room temperature, then assayed for cGMP production using Cisbio cGMP HTRF kit (62GM2PEC) according to manufacturer's instructions.
The EC50s are calculated based on the amount of cGMP interpolated from the standard curve, using a 4-parameter sigmoidal dose-response.
Compounds of invention are active on sGC activation. Data on Table 1 collected using the assay of Biological Example 1. The minimum EC50 quantification limit of the assay is 0.5 nM, therefore any compound listed as having an EC50 value of 0.5 nM has a actual EC50 of ≤0.5 nM.

T1 sequence (Q02108 whole entry partner): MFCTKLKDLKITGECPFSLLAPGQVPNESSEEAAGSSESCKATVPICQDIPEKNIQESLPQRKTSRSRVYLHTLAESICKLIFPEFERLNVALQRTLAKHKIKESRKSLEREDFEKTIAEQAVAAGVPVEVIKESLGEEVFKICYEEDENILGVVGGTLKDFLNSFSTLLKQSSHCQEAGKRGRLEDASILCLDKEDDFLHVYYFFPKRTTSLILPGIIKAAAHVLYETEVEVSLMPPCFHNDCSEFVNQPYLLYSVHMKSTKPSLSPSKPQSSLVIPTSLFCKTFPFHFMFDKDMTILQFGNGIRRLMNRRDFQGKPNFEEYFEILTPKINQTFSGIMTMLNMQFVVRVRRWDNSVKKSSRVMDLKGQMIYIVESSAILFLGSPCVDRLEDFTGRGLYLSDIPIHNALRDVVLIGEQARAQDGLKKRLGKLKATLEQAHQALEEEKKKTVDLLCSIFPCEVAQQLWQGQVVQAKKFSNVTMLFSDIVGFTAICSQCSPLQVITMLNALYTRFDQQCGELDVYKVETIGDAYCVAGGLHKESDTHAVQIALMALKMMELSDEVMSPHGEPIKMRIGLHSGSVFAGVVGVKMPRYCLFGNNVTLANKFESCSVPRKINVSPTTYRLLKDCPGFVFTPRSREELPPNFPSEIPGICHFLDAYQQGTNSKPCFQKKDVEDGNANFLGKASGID
T1 sequence (Q02153 whole entry): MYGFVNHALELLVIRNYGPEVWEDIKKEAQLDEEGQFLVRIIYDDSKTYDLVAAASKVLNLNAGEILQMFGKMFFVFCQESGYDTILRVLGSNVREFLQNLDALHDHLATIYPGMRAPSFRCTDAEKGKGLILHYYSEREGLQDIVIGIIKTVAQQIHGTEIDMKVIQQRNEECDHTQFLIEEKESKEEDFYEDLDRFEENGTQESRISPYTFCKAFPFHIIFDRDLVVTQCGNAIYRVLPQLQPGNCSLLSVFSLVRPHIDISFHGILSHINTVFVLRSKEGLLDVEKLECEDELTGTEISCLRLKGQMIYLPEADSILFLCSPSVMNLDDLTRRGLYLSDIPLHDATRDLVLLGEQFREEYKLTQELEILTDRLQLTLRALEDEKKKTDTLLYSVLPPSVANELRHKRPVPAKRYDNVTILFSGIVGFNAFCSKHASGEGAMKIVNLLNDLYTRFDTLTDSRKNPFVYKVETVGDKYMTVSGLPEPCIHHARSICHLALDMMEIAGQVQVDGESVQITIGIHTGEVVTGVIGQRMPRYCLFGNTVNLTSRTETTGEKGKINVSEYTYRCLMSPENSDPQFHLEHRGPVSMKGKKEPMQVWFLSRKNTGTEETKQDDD

pEC50 | SMILES
7.66 | Cc1cc(C2CCN(C(=O)C3CC3)CC2)ccc1OCC1=C(c2cccc(-n3ncc(C(=O)O)c3C(F)(F)F)c2)CC(C)CC1 (racemic) [Example 28, (±)-1-(6′-((4-(1-(Cyclopropanecarbonyl)piperidin-4-yl)-2-methylphenoxy)methyl)-3′-methyl-2′,3′,4′,5′-tetrahydro-[1,1-biphenyl]-3-yl)-5-(trifluoromethyl)-1H-pyrazole-4-carboxylic acid]
8.41 | CC1CCCC(c2cccc(-n3ncc(C(=O)O)c3C(F)(F)F)n2)=C1COc1ccc2c(c1)CCN(Cc1ccccn1)C2 (racemic) [Example 29-1, (±)-1-(6-(3-Methyl-2-(((2-(pyridin-2-ylmethyl)-1,2,3,4-tetrahydroisoquinolin-6-yl)oxy)methyl)cyclohex-1-en-1-yl)pyridin-2-yl)-5-(trifluoromethyl)-1H-pyrazole-4-carboxylic acid]
6.38 | O=C(O)c1cnn(-c2cccc(C3=C(COc4ccc([C@H]5CCN(C(=O)C6CC6)C[C@@H]5O)cc4)CCCC3)n2)c1C(F)(F)F (racemic) [Example 29-2, (±)-1-(6-(2-((4-((3,4-trans)-1-(cyclopropanecarbonyl)-3-hydroxypiperidin-4-yl)phenoxy)methyl)cyclohex-1-en-1-yl)pyridin-2-yl)-5-(trifluoromethyl)-1H-pyrazole-4-carboxylic acid]
≥ 9.30 | Cc1cc(C2CCN(C(=O)C3CC3)CC2)ccc1OCC1=C(c2cccc(-n3ncc(C(=O)O)c3C(F)(F)F)n2)CC(C)CC1 (single isomer, unassigned; (+)) [Example 12 (+), (+)-1-(6-(2-((4-(1-(cyclopropanecarbonyl)piperidin-4-yl)-2-methylphenoxy)methyl)-5-methylcyclohex-1-en-1-yl)pyridin-2-yl)-5-(trifluoromethyl)-1H-pyrazole-4-carboxylic acid]
9.00 | CCc1cc(OCC2=C(c3cccc(-n4ncc(C(=O)O)c4C(F)(F)F)n3)CCCC2C)ccc1C1CCN(C(=O)C2CC2)CC1 (single isomer, unassigned; (+)) [Example 13a, (+)-1-(6-(2-((4-(1-(Cyclopropanecarbonyl)piperidin-4-yl)-3-ethylphenoxy)methyl)-3-methylcyclohex-1-en-1-yl)pyridin-2-yl)-5-(trifluoromethyl)-1H-pyrazole-4-carboxylic acid]
≥ 9.30 | Cc1cc(C2CCN(C(=O)C3CC3)CC2)ccc1OCC1=C(c2cccc(-n3ncc(C(=O)O)c3C(F)(F)F)n2)CCCC1C (single isomer, unassigned; (+)) [Example 15a, (+)-1-(6-(2-((4-(1-(cyclopropanecarbonyl)piperidin-4-yl)-2-methylphenoxy)methyl)-3-methylcyclohex-1-en-1-yl)pyridin-2-yl)-5-(trifluoromethyl)-1H-pyrazole-4-carboxylic acid]
≥ 9.30 | CCc1cc(OCC2=C(c3cccc(-n4ncc(C(=O)O)c4C)n3)CCCC2C)ccc1C1CCN(C(=O)C2CC2)CC1 (single isomer, unassigned; (+)) [Example 16a, (+)-1-(6-(2-((4-(1-(Cyclopropanecarbonyl)piperidin-4-yl)-3-ethylphenoxy)methyl)-3-methylcyclohex-1-en-1-yl)pyridin-2-yl)-5-methyl-1H-pyrazole-4-carboxylic acid]
≥ 9.30 | CCc1cc(OCC2=C(c3cccc(-n4ncc(C(=O)O)c4CC)n3)CCCC2C)ccc1C1CCN(C(=O)C2CC2)CC1 (single isomer, unassigned; (+)) [Example 17a, (+)-1-(6-(2-((4-(1-(Cyclopropanecarbonyl)piperidin-4-yl)-3-ethylphenoxy)methyl)-3-methylcyclohex-1-en-1-yl)pyridin-2-yl)-5-ethyl-1H-pyrazole-4-carboxylic acid]
≥ 9.30 | CCc1cc(OCC2=C(c3cccc(-n4ncc(C(=O)O)c4C(F)F)n3)CCCC2C)ccc1C1CCN(C(=O)C2CC2)CC1 (single isomer, unassigned; (+)) [Example 20(b) (+), (+)-1-(6-(2-((4-(1-(cyclopropanecarbonyl)piperidin-4-yl)-3-ethylphenoxy)methyl)-3-methylcyclohex-1-en-1-yl)pyridin-2-yl)-5-(difluoromethyl)-1H-pyrazole-4-carboxylic acid]
9.00 | CCc1cc(OCC2=C(c3cccc(-n4ncc(C(=O)O)c4C(F)(F)F)n3)CCC2C)ccc1C1CCN(C(=O)C2CC2)CC1 (single isomer, unassigned; (+)) [Example 22(b) (+), (+)-1-(6-(2-((4-(1-(cyclopropanecarbonyl)piperidin-4-yl)-3-ethylphenoxy)methyl)-3-methylcyclopent-1-en-1-yl)pyridin-2-yl)-5-(trifluoromethyl)-1H-pyrazole-4-carboxylic acid]
≥ 9.30 | Cc1cc(C2CCN(C(=O)C3CC3)CC2)ccc1OCC1=C(c2cccc(-n3ncc(C(=O)O)c3C(F)(F)F)n2)CC(C)CC1 (single isomer, unassigned; (-)) [Example 12 (−), (−)-1-(6-(2-((4-(1-(cyclopropanecarbonyl)piperidin-4-yl)-2-methylphenoxy)methyl)-5-methylcyclohex-1-en-1-yl)pyridin-2-yl)-5-(trifluoromethyl)-1H-pyrazole-4-carboxylic acid]
8.05 | CCc1cc(OCC2=C(c3cccc(-n4ncc(C(=O)O)c4C(F)(F)F)n3)CCCC2C)ccc1C1CCN(C(=O)C2CC2)CC1 (single isomer, unassigned; (-)) [Example 13b, (−)-1-(6-(2-((4-(1-(Cyclopropanecarbonyl)piperidin-4-yl)-3-ethylphenoxy)methyl)-3-methylcyclohex-1-en-1-yl)pyridin-2-yl)-5-(trifluoromethyl)-1H-pyrazole-4-carboxylic acid]
9.00 | Cc1cc(C2CCN(C(=O)C3CC3)CC2)ccc1OCC1=C(c2cccc(-n3ncc(C(=O)O)c3C(F)(F)F)n2)CCCC1C (single isomer, unassigned; (-)) [Example 15b, (−)-1-(6-(2-((4-(1-(Cyclopropanecarbonyl)piperidin-4-yl)-2-methylphenoxy)methyl)-3-methylcyclohex-1-en-1-yl)pyridin-2-yl)-5-(trifluoromethyl)-1H-pyrazole-4-carboxylic acid]
8.52 | CCc1cc(OCC2=C(c3cccc(-n4ncc(C(=O)O)c4C)n3)CCCC2C)ccc1C1CCN(C(=O)C2CC2)CC1 (single isomer, unassigned; (-)) [Example 16b, (−)-1-(6-(2-((4-(1-(Cyclopropanecarbonyl)piperidin-4-yl)-3-ethylphenoxy)methyl)-3-methylcyclohex-1-en-1-yl)pyridin-2-yl)-5-methyl-1H-pyrazole-4-carboxylic acid]
8.85 | CCc1cc(OCC2=C(c3cccc(-n4ncc(C(=O)O)c4CC)n3)CCCC2C)ccc1C1CCN(C(=O)C2CC2)CC1 (single isomer, unassigned; (-)) [Example 17b, (−)-1-(6-(2-((4-(1-(Cyclopropanecarbonyl)piperidin-4-yl)-3-ethylphenoxy)methyl)-3-methylcyclohex-1-en-1-yl)pyridin-2-yl)-5-ethyl-1H-pyrazole-4-carboxylic acid]
8.70 | CCc1cc(OCC2=C(c3cccc(-n4ncc(C(=O)O)c4C(F)F)n3)CCCC2C)ccc1C1CCN(C(=O)C2CC2)CC1 (single isomer, unassigned; (-)) [Example 20b (−), (−)-1-(6-(2-((4-(1-(cyclopropanecarbonyl)piperidin-4-yl)-3-ethylphenoxy)methyl)-3-methylcyclohex-1-en-1-yl)pyridin-2-yl)-5-(difluoromethyl)-1H-pyrazole-4-carboxylic acid]
8.26 | CCc1cc(OCC2=C(c3cccc(-n4ncc(C(=O)O)c4C(F)(F)F)n3)CCC2C)ccc1C1CCN(C(=O)C2CC2)CC1 (single isomer, unassigned; (-)) [Example 22(b) (−), (−)-1-(6-(2-((4-(1-(cyclopropanecarbonyl)piperidin-4-yl)-3-ethylphenoxy)methyl)-3-methylcyclopent-1-en-1-yl)pyridin-2-yl)-5-(trifluoromethyl)-1H-pyrazole-4-carboxylic acid]
≥ 9.30 | CCc1cc(OCC2=C(c3cccc(-n4ncc(C(=O)O)c4CC)n3)CCCC2C)ccc1C1CCN(C(=O)[C@H](C)O)CC1 (single isomer, unassigned; diastereomer-1) [Example 18a]
≥ 9.30 | CCc1cc(OCC2=C(c3cccc(-n4ncc(C(=O)O)c4C)n3)CCCC2C)ccc1C1CCN(C(=O)[C@H](C)O)CC1 (single isomer, unassigned; diastereomer-1) [Example 19a]
8.05 | CCc1cc(OCC2=C(c3cccc(-n4ncc(C(=O)O)c4CC)n3)CCCC2C)ccc1C1CCN(C(=O)[C@H](C)O)CC1 (single isomer, unassigned; diastereomer-2) [Example 18b]
8.10 | CCc1cc(OCC2=C(c3cccc(-n4ncc(C(=O)O)c4C)n3)CCCC2C)ccc1C1CCN(C(=O)[C@H](C)O)CC1 (single isomer, unassigned; diastereomer-2) [Example 19b]
